# Measured values taken from patent US5866576A, “Epoxide-containing compounds” (Cell Therapeutics, Inc., priority 1997, dated 1999).
# Legend:
# [1] = system: murine splenocytes; assay: murine splenocyte proliferation co-stimulated by anti-mu and IL-4 (FIG. 11); format: cell-based; conditions: Mus musculus, anti-mu / IL-4 12.5 ng/ml
# Description: This example illustrates inhibitive effects of compounds nos. 1439, 1553S, 1560 and 1565 on murine splenocyte proliferation co-stimulated by anti-mu ([…]) and interleukin-4 (IL-4, 12.5 ng/ml). This in vitro assay, described above, is indicative of immune-suppressive/autoimmune treatment assay emphasizing humoral or B cell immune response. This assays are a predictive model for treatment or prevention of autoimmune diseases, such as diabetes, lupus, arthritis, and the like. The assay measures immunosuppressive activity of a drug at the B cell level. Spleens from adult mice contain immature B cells that express surface IgM. Cross-linking the surface IgM with an anti-mu antibody results in B cell proliferation. Additionally, this activation results in an increased expression of interleukin-4 receptors(IL-4R) on the surface of such cells. IL-4 acts as a growth factor for B cells and will increase the amount of proliferation induced by anti-mu.
# A mixture of anti-mu and murine IL-4 is added to murine splenocytes to cause their proliferation. Mice spleens are obtained from adult mice and a single cell suspension is prepared in RPMI 1640 medium supplemented with 10% FCS. Cells (200,000) are plated into flat-bottomed wells and pre-incubated for 1-2 hours with various concentrations of inventive compound or PBS if it is a control. A mixture of anti-mu and murine is added to the wells at a final concentration of 5 μg/ml anti-mu and 12.5 ng/ml IL-4 and plates are incubated for three days. Proliferation is determined on the third day with a pulse of tritiated thymidine. The IC50 concentration of a particular drug is the concentration of drug that results in a 50% inhibition of the proliferation obtained from the positive control.
# [2] = system: thymocytes; assay: murine thymocyte proliferation assay co-stimulated by ConA and IL-2 (FIGS. 7A-7E); format: cell-based, Balb/C mice; conditions: Mus musculus
# Description: This example illustrates dose response curves used to generate 50% inhibition concentrations (IC50) for inventive compounds nos. 1410, 1439, 1541, 1553, 1553S, 1560, 1565, 2548R, 2548S and 2562 in a murine thymocyte proliferation assay, co-stimulated by Concanavalin A (ConA) and interleukin-2 alpha (IL-2). ConA, used to activate the T-cell receptor (TCR), along with IL-2 co-stimulation, induces T-cell proliferation and differentiation. Thymuses, obtained from normal, female Balb/C mice, were dissociated and plated into 96-well plates at a density of 2×10^5 cells/well. ConA (0.25 mg/ml) and IL-2 (15 U/ml) were added to the wells. The cells were incubated for 4 days at 37° C. On day 4, the cells were pulsed with tritiated thymidine and incubated for an additional 4 hours. The amount of tritiated thymidine incorporated by the harvested cells was determined in a liquid scintillation counter. Doses of inventive compounds (shown in FIGS. 7A-7E) were added two hours prior to ConA and IL-2 activation. Background counts were less than 200 cpm. Results obtained, illustrate the ability of the inventive compounds to inhibit thymocyte proliferation and activation. In FIG. 7A, inventive compounds nos. […] FIG. 7B presents additional data for compound no. 1410 and 1553S in this assay. […] FIG. 7C reports assay results for inventive compounds nos. 1439, 1541, 1560 and 1565. […] FIGS. 7D and 7E illustrate assay results for inventive compounds nos. 1541, 1553, 1560 and 1565 (FIG. 7D) and 2562, […] (FIG. 7E). As is true of other inventive compounds tested, all these compounds represented in FIGS. 7D and 7E inhibit thymocyte proliferation. […] 1541, 1553, 1560, 1565, 2562, 2548R and 2548S, respectively.
# [3] = system: lymph node cells; assay: ovalbumin-induced proliferation in murine lymph cells (FIG. 13); format: cell-based, Balb/C mice; conditions: Mus musculus, OVA 200 μg/ml
# Description: This example illustrates effects of the inventive compounds on ovalbumin-induced proliferation in murine lymph cells. Lymphnode cells contain a mixture of lymphoid cells: T-cells, B-cells and macrophages. Although proliferating cells in this assay are T-cells, the response obtained depends on type of antigen-presenting cell (e.g., macrophages) as well as elaboration of various immunoregulatory cytokines. Thus, this assay serves as a good model for T-cell mediated responses and as a valuable screening tool in identifying compounds useful in immunosuppressive therapeutic applications.
# Murine T-cells proliferate in vitro in response to a soluble protein antigen if first primed with a corresponding antigen in vivo. This in vivo priming usually involves emulsifying the antigen in complete Freunds adjuvant and injecting this preparation into an appropriate site on a mouse. In this assay the antigen employed was chicken ovalbumin(OVA). Following emulsification in Freund's complete adjuvant, 50 μg of OVA were injected into both hind footpads of adult Balb/C mice. Fourteen days later the draining lymph nodes(popliteal) were removed and a single cell suspension was prepared in RPMI-1640 (10%FCS) medium. Two hundred thousand lymph node cells are then plated into wells of flat-bottom 96-well plates. Inventive compouds nos. 1410, 1553 (racemic), 1553(S), 1560 and 1565 were added to appropriate wells at various concentrations. OVA, at a final concentration of 200 μg/ml, was added to appropriate wells. Positive and negative controls were established on each plate, all assay variables being set up in quadruplicate.
# The plates were incubated in a humidified, 5% CO2 incubator for 5 days. On the fifth day, 1 μCi of tritiated thymidine was added to each well and the plates were incubated for an additional 4 hours. The plates were harvested and the incorporation of 3H-TdR was determined in a liquid scintillation counter. The CPM data was then used to calculate experimental IC50 values for the compounds tested. Again, IC50 is defined as that concentration of compound resulting in 50% inhibition of 3H-TdR incorporation of the positive control.
# [4] = system: normal human bone marrow stromal cells (MSC); assay: human bone marrow stromal cell (MSC) proliferation in response to PDGF BB and IL-1α; format: cell-based; conditions: Table III, PDGF BB 50 ng/ml and IL-1α 10 ng/ml
# Description: This example illustrates the effects of inventive compounds nos. 1114, 1413, 1560, 1565, 1594, 2518, 2548R, 2548S and 3503 as effective inhibitors of normal human bone marrow stromal cells (MSC) proliferation in response to Platelet Derived Growth Factor BB (PDGF B) and IL-1α (50 and 10 ng/ml, respectively).
# MSC were obtained and malintained in exponential growth, released from a growth plate with trypsin and plated into 96 well tissue culture plates in the presence of Fibroblast Growth Factor (FGFβ) for 48 hours. Growth media were removed and the cells were washed once with serum free media. The cells were then incubated 20-24 hours in serum free media.
# After incubation, inventive compounds were added to the cells at the appropriate concentration and then the cells again incubated for 1 hour. PDGF B and IL-1α were added to the cells along with 3H-thymidine and the cells again incubated for an additional 24 hours.
# After 24 hours of incubation, the cells were then harvested to assess incorporation of ^3 H-thymidine into DNA (proliferation). From each harvested cell culture, an IC-50 for each inventive compound tested was determined. Therefore, a lower reported IC-50 value is indicatilve of greater activity of the invention compounds in inhibiting MSC proliferation. Table III illustrates IC-50 values (in μM) for invention compounds inhibiting MSC proliferation at very low concentrations of compound.
# [5] = system: human stromal cells; assay: PDGF-induced proliferation of human stromal cells (FIG. 4); format: cell-based; conditions: PDGF-BB 50 ng/ml
# Description: Human stromal cells were starved in serum-free media for 24 hours and then stimulated with 50 ng/ml of PDGF-BB. The drugs were added at various indicated concentrations one hour prior to PDGF stimulation. Tritiated thymidine was added for 24 hrs at the time of PDGF stimulation to measure cellular proliferation. Background counts were approximately 5% of control levels.
# This example illustrates a comparison of inventive compounds nos. 1605, 1808 and 1906 on PDGF-induced (platelet derived growth factor) proliferation of human stromal cells. Human stromal cells were starved in serum-free media for 24 hours and then stimulated with 50 ng/ml of PDGF-BB. The drugs were added at various indicated concentrations one hour prior to PDGF stimulation. Tritiated thymidine was added for 24 hours at the time of PDGF stimulation to measure cellular proliferation. Background counts were approximately 5% of control levels.
# [6] = system: PBMC (peripheral blood mononuclear cells); assay: two-way mixed lymphocyte reaction, PBMC (FIG. 1); format: cell-based; conditions: for potency in mixed lymphocyte reaction compared with PTX: PTX not shown on graph
# Description: This example illustrates the effects of inventive compounds nos. 1605, 1808 and 1906 as immune modulators in a mixed lymphocyte reaction. […] 1605, 1808 and 1906.
# [7] = system: Ramos B-cell tumor line; assay: B-cell proliferation, Ramos line stimulated with anti-mu or PMA (FIG. 3); format: cell-based, human; conditions: 250 μM, anti-mu or PMA (5 nM)
# Description: A Ramos […] tumor line was treated with 250 μM 1808 or 1605 for one hour prior to stimulation of proliferation with anti-mu antibody or phorbol myristic acid (PMA, 5 nM). One day later, proliferation was measured with tritiated thymidine.
# This example illustrates a comparison of inventive compounds nos. 1605 and 1808 for inhibition of B-cell proliferation. A Ramos B-cell tumor line was treated with 250 μM 1808 or 1605 for one hour prior to stimulation of proliferation with anti-mu antibody or PMA (5 nM). One day later, proliferation was measured with tritiated thymidine.
# [8] = system: vascular cell adhesion molecule-1 (VCAM) in human umbilical vein endothelial cells (HUVEC); assay: cell surface expression of VCAM in TNF-α stimulated HUVEC, flow cytometry (FIG. 6); format: cell-based; conditions: TNF-α 20 ng/ml, 20 hrs
# Description: The HUVEC cells were stimulated with 20 ng/ml TNF-α for 20 hrs and then stained for immunofluorescence using a monoclonal antibody recognizing VCAM, followed by a goat anti-mouse antibody conjugated to phycoerythrin. The cells were analyzed for antibody binding using flow cytometry.
# This example illustrates the effects of inventive compounds nos. 1605, 1808 and 1906 to inhibit cell surface expression of vascular cell adhesion molecule-1 (VCAM) in human umbilical vein endothelial cells (HUVEC). The HUVEC cells were stimulated with 20 ng/ml TNF-α for 20 hrs and then stained for immunofluorescence using a monoclonal antibody recognizing VCAM, followed by a goat anti-mouse antibody conjugated to phycoerythrin. The cells were analyzed for antibody binding using flow cytometry.
# [9] = system: U937 cells; human umbilical vein endothelial cells (HUVEC); assay: adhesion of U937 cells to TNF-α activated HUVEC (FIG. 5); format: cell-based; conditions: TNF-α 20 ng/ml, 12 hours
# Description: HUVEC cells were activated with 20 ng/ml of TNF for 12 hrs. Drug was added to each culture (except for controls) one hour prior to adding TNF. U937 cells, preloaded with the fluorescent dye BCECF, were added to each culture well and then washed. Cell adhesion was determined on a fluorescence plate reader, showing a decrease in cell adhesion caused by all three drugs in a dose dependent fashion.
# This example illustrates a comparison of the effects of inventive compounds nos. 1605, 1808 and 1906 to inhibit adhesion of U937 cells to activated human umbilical vein endothelial cells (HUVEC). HUVEC cells (4000/ well, seeded 72 hours in advance) were activated with 20 ng/ml of TNF-α for 12 hours. Drug was added to the HUVEC (except for controls) one hour prior to adding TNF-α. U937 cells, preloaded with the fluorescent dye BCECF, were added to each culture well and then washed twice with PBS. Cell adhesion was determined by measuring the fluorescence of adhering U937 cells on a fluorescence plate reader.
# [10] = system: thymocytes; assay: thymocyte proliferation co-stimulated with Con A and/or IL-1α (FIG. 2); format: cell-based, Balb/C mice; conditions: three dose levels
# Description: The thymocytes were obtained from normal female Balb/C mice and stimulated with Concanavalin A (Con A) and/or interleukin-1 alpha (L-1α). Drugs were added to the cell cultures two hours before activation with Con A and/or IL-1α.
# This example illustrates a comparison of three dose levels of inventive compounds nos. 1808 and 1906 and no drug control to inhibit thymocyte proliferation. The thymocytes were obtained from normal female Balb/C mice and co-stimulated with Concanavalin A (Con A) and/or IL-1α (interleukin-1 alpha). The thymuses were dissociated and plated into 96-well plates at a density of 2×10^5 cells/well. Dilutions of Con A and/or IL-1α were added to the wells and the cells were incubated for 4 days at 37° C. Drugs were added to the cell cultures two hours before activation with Con A and/or IL-1α. On day 4, the cells were pulsed with tritiated thymidine and allowed to incubate an additional 4 hrs. The cells were harvested and counted.
compound,measurement,setting,value
"Cn1cnc2c1c(=O)n(CCCCCC[C@H]1CO1)c(=O)n2C [Compound 1553S, 1-(7(5)-7,8-Oxidooctyl)-3,7-dimethylxanthine]",IC50,[1],50 µM
same,IC50,[2]; FIG. 7B,46 µM
same,IC50,[3],43 µM
"Cn1cnc2c1c(=O)n(CCCCCCCCC1CO1)c(=O)n2C (centres unmarked) [Compound 1565, 1-(9,10-Oxidodecyl)-3,7-dimethylxanthine]",IC50,[1],40 µM
same,IC50,[2]; FIG. 7C,32 µM
same,IC50,[2]; FIGS. 7D and 7E,30 µM
same,IC50,[3],38 µM
same,IC50,[4],17 µM
"O=C1CCCC(=O)N1CCCCC1CO1 (centres unmarked) [Compound 1605, N-(5,6-Oxidohexyl) glutarimide]",inhibition of PDGF-induced proliferation,[5],inhibited PDGF-induced stimulation in a dose response fashion
same,activity in mixed lymphocyte reaction (immune modulation),[6],demonstrated activity
same,potency in mixed lymphocyte reaction compared with PTX,[6],more potent than PTX
same,inhibition of B-cell proliferation,[7],inhibited proliferation
same,mean fluorescence (VCAM surface expression),[8],Mean fluorescence levels were decreased
same,inhibition of U937 cell adhesion to HUVEC,[9],decrease in cell adhesion induced by TNF-α in a dose dependent fashion
"Cc1cn(C)c(=O)n(CCCCC2CO2)c1=O (centres unmarked) [Compound 1906, 3-(5,6-Oxidohexyl)-1-methylthymine]",inhibition of PDGF-induced proliferation,[5],inhibited PDGF-induced stimulation in a dose response fashion
same,activity in mixed lymphocyte reaction (immune modulation),[6],demonstrated activity
same,potency in mixed lymphocyte reaction compared with PTX,[6],more potent than PTX
same,mean fluorescence (VCAM surface expression),[8],Mean fluorescence levels were decreased
same,inhibition of thymocyte proliferation,[10],inhibited thymocyte proliferation is a dose-dependent fashion
same,inhibition of U937 cell adhesion to HUVEC,[9],decrease in cell adhesion induced by TNF-α in a dose dependent fashion
